Assay results as given in patent US9150592B2, “Heterocyclic nuclear hormone receptor modulators” (AbbVie Inc., priority 2012, dated 2015).

Assays:
[1] = target: T1, Glucocorticoid Receptor (GR) (Homo sapiens, UniProt P04150); assay: GR Fluorescence Polarization Assay (PolarScreen Glucocorticoid Receptor Competitor Assay, Red); settings: IC50 class ranges, read-out: GR binding
T1 construct: purchased Invitrogen P2893
T1 sequence (P04150 1-777): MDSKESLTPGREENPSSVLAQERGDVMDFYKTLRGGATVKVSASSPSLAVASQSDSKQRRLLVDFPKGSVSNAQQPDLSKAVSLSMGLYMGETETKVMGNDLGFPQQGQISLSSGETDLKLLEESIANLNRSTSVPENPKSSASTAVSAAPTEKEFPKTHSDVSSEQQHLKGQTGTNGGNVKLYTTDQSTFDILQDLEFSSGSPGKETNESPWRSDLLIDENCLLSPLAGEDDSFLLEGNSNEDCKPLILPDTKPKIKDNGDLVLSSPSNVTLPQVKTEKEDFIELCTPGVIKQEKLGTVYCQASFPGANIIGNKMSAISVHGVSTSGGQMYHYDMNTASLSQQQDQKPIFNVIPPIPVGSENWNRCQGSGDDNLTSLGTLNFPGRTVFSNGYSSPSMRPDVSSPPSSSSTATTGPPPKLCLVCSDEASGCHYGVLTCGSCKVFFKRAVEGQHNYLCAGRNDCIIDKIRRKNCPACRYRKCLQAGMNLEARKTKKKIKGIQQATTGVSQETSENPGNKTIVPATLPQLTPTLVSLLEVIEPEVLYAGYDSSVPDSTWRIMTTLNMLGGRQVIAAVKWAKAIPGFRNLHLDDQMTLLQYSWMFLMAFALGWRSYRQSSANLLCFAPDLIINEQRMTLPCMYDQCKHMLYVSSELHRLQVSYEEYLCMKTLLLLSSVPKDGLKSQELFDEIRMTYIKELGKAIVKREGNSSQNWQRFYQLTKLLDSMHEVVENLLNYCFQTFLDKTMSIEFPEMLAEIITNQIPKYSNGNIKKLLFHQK
Summary of the method: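 Competitive fluorescence-polarization assay using a red fluorescent glucocorticoid tracer with human GR in kit buffer. Compounds serially diluted 1:4 in DMSO, incubated with tracer and GR overnight at 4° C, then polarization read.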

[2] = tested on: IL-6 in A549 cells stimulated with IL-1β; assay: A549 Cell Assay to Measure Inflammation Markers (inhibition of IL-1β-induced IL-6); format: cell-based; settings: Homo sapiens, A549, A549 Cell Assay to Measure Inflammation Markers; intrinsic activity, Emax class ranges
Summary of the method: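 Compound pre-incubated with A549 cells 1 h at 37 °C, then stimulated with IL-1β (1 ng/mL final, 0.1% DMSO). Supernatant IL-6 quantified by MSD immunoassay after a further incubation. IC50 and Emax derived.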

Compound	IC50 [1] [µM]	Emax [2] [%]
CCn1nc(-c2ccncn2)c2c1NCCSC2c1ccc(Br)cc1C (stereo not shown) [D.108]	< 0.1	> 50
Cc1cc2c(cnn2-c2ccc(F)cc2)cc1C1SCCNc2c1c(-c1ccccn1)nn2C (stereo not shown) [D.109]	< 0.1	> 70
COC(=O)c1ccc(C2SCCNc3c2c(-c2ccccn2)nn3C)c(Cl)c1 (stereo not shown) [E.1, methyl 3-chloro-4-[1-methyl-3-(2-pyridyl)-4,6,7,8-tetrahydropyrazolo[3,4-e][1,4]thiazepin-4-yl]benzoate]	< 0.1	< 50
COC(=O)c1ccc(C)c(C2SCCNc3c2c(-c2ccccn2)nn3C)c1 (stereo not shown) [E.3, methyl 4-methyl-3-[1-methyl-3-(2-pyridyl)-4,6,7,8-tetrahydropyrazolo[3,4-e][1,4]thiazepin-4-yl]benzoate]	> 10	< 50
COC(=O)c1cc(C2SCCNc3c2c(-c2ccccn2)nn3C)c(C)s1 (stereo not shown) [E.5]	1 to 10	< 50
COC(=O)c1ccc(C2SCC(C)Nc3c2c(-c2ccccn2)nn3C)c(C)c1 (stereo not shown) [E.7]	< 0.1	> 50
Cc1ncccc1NC(=O)c1ccc(C2SCCNc3c2c(-c2ccccn2)nn3C)c(Cl)c1 (stereo not shown) [F.1, 3-chloro-N-(2-methyl-3-pyridyl)-4-[1-methyl-3-(2-pyridyl)-4,6,7,8-tetrahydropyrazolo[3,4-e][1,4]thiazepin-4-yl]benzamide]	< 0.1	> 70
Cc1ncccc1NC(=O)c1ccc(-c2nn(C)c3c2C(c2ccc(Cl)cc2Cl)SCCN3)nc1 (stereo not shown) [F.2]	1 to 10	< 50
Cc1ncccc1NC(=O)c1ccc(C2SCCNc3c2c(-c2ccccn2)nn3C)cc1 (stereo not shown) [F.3]	1 to 10	< 50
Cc1cc(C(=O)Nc2cccnc2C)sc1C1SCCNc2c1c(-c1ccccn1)nn2C (stereo not shown) [F.4]	> 10	< 50
Cc1ccc(C(=O)Nc2cccnc2C)cc1C1SCCNc2c1c(-c1ccccn1)nn2C (stereo not shown) [F.5]	> 10	< 50
Cc1ncccc1NC(=O)c1cc(C2SCCNc3c2c(-c2ccccn2)nn3C)c(C)s1 (stereo not shown) [F.6]	1 to 10	< 50
CCn1nc(-c2ccccn2)c2c1NCCCC2c1ccc(C(=O)Nc2cccnc2C)cc1C (stereo not shown) [F.7]	< 0.1	> 70
Cc1ccc(C#N)cc1C1SCCNc2c1c(-c1ccccn1)nn2C (stereo not shown) [G.1, 4-methyl-3-[1-methyl-3-(2-pyridyl)-4,6,7,8-tetrahydropyrazolo[3,4-e][1,4]thiazepin-4-yl]benzonitrile]	0.1 to 1	< 50
Cc1cc(C#N)ccc1[C@@H]1S[C@@H](C)CNc2c1c(C)nn2C [G.2]	0.1 to 1	< 50
Cc1ccc(C#N)cc1C1SC(C)(C)CNc2c1c(C1CC1)nn2C (stereo not shown) [G.5]	0.1 to 1	< 50
Cc1cc(C#N)ccc1C1SC(C)(C)CNc2c1c(C)nn2C (stereo not shown) [G.6]	0.1 to 1	< 50
Cc1cc(C#N)ccc1C1SCC(C)Nc2c1c(-c1ccccn1)nn2C (stereo not shown) [G.7]	< 0.1	> 70
Cc1cc(C#N)ccc1C1SCCNc2c1c(-c1ccccn1)nn2C (stereo not shown) [G.8, 3-methyl-4-(1-methyl-3-(pyridin-2-yl)-4,6,7,8-tetrahydro-1H-pyrazolo[3,4-e][1,4]thiazepin-4-yl)benzonitrile]	< 0.1	> 60
Cc1cc(C#N)ccc1C1SCCNc2onc(-c3ccccn3)c21 (stereo not shown) [G.9]	< 0.1	< 50
CCn1nc(-c2ccccn2)c2c1NCCSC2c1ccc(C#N)cc1C (stereo not shown) [G.10, 3-methyl-4-(1-ethyl-3-(pyridin-2-yl)-4,6,7,8-tetrahydro-1H-pyrazolo[3,4-e][1,4]thiazepin-4-yl)benzonitrile]	< 0.1	> 70
Cc1cc(C(=O)Nc2cccnc2)ccc1C1SC(C)(C)CNc2c1c(C)nn2C (stereo not shown) [H.1, 3-methyl-N-(3-pyridyl)-4-(1,3,6,6-tetramethyl-7,8-dihydro-4H-pyrazolo[3,4-e][1,4]thiazepin-4-yl)benzamide]	1 to 10	< 50

Compound	IC50 [1] [µM]	Emax [2] [%]
Cn1nc(-c2ccccn2)c2c1NCCSC2c1ccc(C(=O)Nc2cccnc2)cc1Cl (stereo not shown) [H.3]	0.1 to 1	< 50
CCn1nc(-c2ccccn2)c2c1NCCSC2c1ccc(C(=O)Nc2cccnc2C)cc1C (stereo not shown) [H.4]	< 0.1	> 70
Cc1cc(C(=O)Nc2cccnc2C)ccc1C1SC(C)(C)CNc2c1c(C)nn2C (stereo not shown) [H.5]	1 to 10	< 50
Cc1cc(C(=O)Nc2cccnc2C)ccc1C1SCC(C)Nc2c1c(-c1ccccn1)nn2C (stereo not shown) [H.6]	< 0.1	> 70
Cn1nc(-c2ccccn2)c2c1NCCSC2c1ccc(C(N)=O)cc1Cl (stereo not shown) [I.1, 3-chloro-4-[1-methyl-3-(2-pyridyl)-4,6,7,8-tetrahydropyrazolo[3,4-e][1,4]thiazepin-4-yl]benzamide]	0.1 to 1	< 50
Cc1cc(C(N)=O)ccc1C1SC(C)(C)CNc2c1c(C)nn2C (stereo not shown) [I.4]	1 to 10	< 50
Cc1cc(Cl)ccc1C1SCC(C(C)C)Nc2c1c(-c1ccccn1)nn2C (stereo not shown) [K.3]	< 0.1	< 50
CC1CSC(c2ccc(Br)cc2C(F)(F)F)c2c(-c3ccccn3)nn(C)c2N1 (stereo not shown) [K.11]	< 0.1	< 50
Cc1nn(C)c2c1C(c1ccc(Cl)cc1Cl)[S+]([O-])C(C)(C)CN2 (stereo not shown) [L.1, 4-(2,4-dichlorophenyl)-1,3,6,6-tetramethyl-7,8-dihydro-4H-pyrazolo[3,4-e][1,4]thiazepine 5-oxide]	> 10	< 50
Cn1nc(-c2ccccn2)c2c1NCC[S+]([O-])C2c1ccc(Cl)cc1Cl (stereo not shown) [L.2]	1 to 10	< 50
Cn1nc(-c2ccccn2)c2c1NCCS(=O)(=O)C2c1ccc(Cl)cc1Cl (stereo not shown) [L.3]	0.1 to 1	< 50
Cc1nn(C)c2c1C(c1ccc(Cl)cc1Cl)S(=O)(=O)C(C)(C)CN2 (stereo not shown) [L.4]	1 to 10	< 50
CCn1nc(-c2ccccn2)c2c1NC(=O)CCC2c1ccc(C(=O)Nc2cccnc2C)cc1C (stereo not shown) [O.2]	0.1 to 1	> 70
CCn1nc(-c2ccccn2)c2c1NCCSC2c1ccc(C(=O)Nc2cc(C)no2)cc1C (stereo not shown) [R.1, 4-(1-ethyl-3-(pyridin-2-yl)-4,6,7,8-tetrahydro-1H-pyrazolo[3,4-e][1,4]thiazepin-4-yl)-3-methyl-N-(3-methylisoxazol-5-yl)benzamide]	< 0.1	< 50
CCn1nc(-c2ccccn2)c2c1NCCSC2c1ccc(C(=O)Nc2ccnn2C)cc1C (stereo not shown) [S.1, 4-(1-ethyl-3-(pyridin-2-yl)-4,6,7,8-tetrahydro-1H-pyrazolo[3,4-e][1,4]thiazepin-4-yl)-3-methyl-N-(1-methyl-1H-pyrazol-5-yl)benzamide]	< 0.1	> 70
CCn1nc(-c2ccccn2)c2c1NCCSC2c1ccc(C(=O)Nc2cc(C)nn2C)cc1C (stereo not shown) [S.2]	< 0.1	> 70
CCn1nc(-c2ccccn2)c2c1NCCSC2c1ccc(C(=O)Nc2nncs2)cc1C (stereo not shown) [S.3]	< 0.1	< 50
CCn1nc(-c2ccccn2)c2c1NCCSC2c1ccc(C(=O)Nc2nnc(C)s2)cc1C (stereo not shown) [S.4]	< 0.1	< 50
CCn1nc(-c2ccccn2)c2c1NCCSC2c1ccc(C(=O)Nc2nnc[nH]2)cc1C (stereo not shown) [S.5]	< 0.1	> 70
CCn1nc(-c2ccccn2)c2c1NCCSC2c1ccc(C(=O)Nc2n[nH]cc2C#N)cc1C (stereo not shown) [S.8]	< 0.1	> 50
CCn1nc(-c2ccccn2)c2c1NCCSC2c1ccc(C(=O)Nc2n[nH]c(C)c2C#N)cc1C (stereo not shown) [S.9]	< 0.1	< 50
CCn1nc(-c2ccccn2)c2c1NCCSC2c1ccc(C(=O)Nc2cccnc2Cl)cc1C (stereo not shown) [S.10]	< 0.1	> 70
